One assay has as its target cdk2/cyclin E (Homo sapiens, UniProt P24941). The assay is described as follows: Cyclin-dependent kinase assay, cdk2/cyclin E. Particulars: CDK2 IC50, nM, GST-pRb substrate, 10 µM ATP.
The test system of the next assay is MDA-MB-435. The assay is described as follows: In vitro proliferation assay (MTT), MDA-MB-435. The assay is classed as cell-based, human. To be noted: Homo sapiens, MDA-MB-435, MTT assay; value (SD, n) where given; read-out: MB-435 Breast (IC50 µM). On the procedure:
(§1) The proliferation of tumor cells can be measured using a tetrazolium salt-based assay known as the MTT (3-[4,5-Dimethylthiazol-2-yl]-2,5-diphenyltetrazolium bromide) assay. […] For the assay, the cell lines are plated onto 96 well plates at 1000 to 2500 cells/well (depending on the properties of the individual cell lines), left to attach and recover overnight. […] After 3 days, the cells are incubated with MTT dye (3-[4,5-Dimethylthiazol-2-yl]-2,5-diphenyltetrazolium bromide, Sigma # M5655, 10 mg/ml in Hank's Buffered Saline) to estimate the amount of live cells remaining vs. concentration for the test compounds. […] The MTT and culture medium is then removed from the cultures and 200 µl of DMSO is added to solubilize the dye from the cell layer. The absorbance at 570 nm is determined for each culture using a Spectramax plate reader (Molecular Devices).
(§2) IC50s were determined from the raw data from either the MTT or SRB assays.
(§3) All of the cell lines were obtained from American Type Tissue Collection, with the ATCC accession number in parentheticals. MCF-7 and MDA-MB-231 cells were grown in improved minimum essential medium (Biofluids) without phenol red, supplemented with 5 % fetal bovine serum, 0.01 mg/ml gentamicin and 3 mM L-glutamine.
Background: Tetrazolium assays rely on reduction of a dye to a coloured formazan, in cell work by metabolically active cells.

The subject of another assay is PC-3. The assay is described as follows: In vitro proliferation assay (MTT), PC-3. Type of assay: cell-based, human. Particulars: Homo sapiens, PC-3, MTT assay; value (SD, n) where given; read-out: PC-3 Prostate (IC50 µM). On the procedure:
as §1, §2, §3

The next assay addresses cdk1/cyclin B (Homo sapiens, UniProt P06493). Kind of assay: Cyclin-dependent kinase assay, cdk1/cyclin B. To be noted: CDK1 IC50, nM, Histone H1, 10 µM ATP.
For another assay, the target named is cdk4/cyclin D1 (Homo sapiens, UniProt P11802). Kind of assay: Cyclin-dependent kinase assay, cdk4/cyclin D1. To be noted: cyclin D1/cdk4; GST-pRb substrate, 10 µM ATP. Type of assay: biochemical.

Counter-ions that a name gives are not always drawn.

cdk4/cyclin D1, sequence (P11802 whole entry): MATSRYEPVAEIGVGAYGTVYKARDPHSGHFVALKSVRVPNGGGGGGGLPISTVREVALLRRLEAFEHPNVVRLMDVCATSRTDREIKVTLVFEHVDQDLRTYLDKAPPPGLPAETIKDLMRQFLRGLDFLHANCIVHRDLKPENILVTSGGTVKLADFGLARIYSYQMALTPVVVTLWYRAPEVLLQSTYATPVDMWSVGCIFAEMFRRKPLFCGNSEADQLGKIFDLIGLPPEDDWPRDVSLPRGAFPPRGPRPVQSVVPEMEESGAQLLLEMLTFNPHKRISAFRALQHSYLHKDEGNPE
cdk4/cyclin D1, sequence (P24385 whole entry partner): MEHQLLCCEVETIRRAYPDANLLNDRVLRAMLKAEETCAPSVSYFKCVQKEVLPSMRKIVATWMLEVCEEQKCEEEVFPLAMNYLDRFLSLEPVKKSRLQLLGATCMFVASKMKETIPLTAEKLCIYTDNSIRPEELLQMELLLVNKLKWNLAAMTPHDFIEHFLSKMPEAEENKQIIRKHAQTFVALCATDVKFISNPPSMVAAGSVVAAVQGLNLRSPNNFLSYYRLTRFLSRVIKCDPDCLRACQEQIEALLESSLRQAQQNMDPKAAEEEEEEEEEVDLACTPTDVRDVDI
cdk1/cyclin B, sequence (P06493 whole entry): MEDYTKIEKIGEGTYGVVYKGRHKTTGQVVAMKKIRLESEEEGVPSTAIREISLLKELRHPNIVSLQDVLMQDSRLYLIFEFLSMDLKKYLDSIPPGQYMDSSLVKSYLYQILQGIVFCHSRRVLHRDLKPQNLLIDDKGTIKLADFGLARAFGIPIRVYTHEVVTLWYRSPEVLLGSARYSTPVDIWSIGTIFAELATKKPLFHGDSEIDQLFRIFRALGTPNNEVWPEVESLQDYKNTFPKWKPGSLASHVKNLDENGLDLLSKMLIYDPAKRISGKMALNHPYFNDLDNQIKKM
cdk1/cyclin B, sequence (P14635 whole entry partner): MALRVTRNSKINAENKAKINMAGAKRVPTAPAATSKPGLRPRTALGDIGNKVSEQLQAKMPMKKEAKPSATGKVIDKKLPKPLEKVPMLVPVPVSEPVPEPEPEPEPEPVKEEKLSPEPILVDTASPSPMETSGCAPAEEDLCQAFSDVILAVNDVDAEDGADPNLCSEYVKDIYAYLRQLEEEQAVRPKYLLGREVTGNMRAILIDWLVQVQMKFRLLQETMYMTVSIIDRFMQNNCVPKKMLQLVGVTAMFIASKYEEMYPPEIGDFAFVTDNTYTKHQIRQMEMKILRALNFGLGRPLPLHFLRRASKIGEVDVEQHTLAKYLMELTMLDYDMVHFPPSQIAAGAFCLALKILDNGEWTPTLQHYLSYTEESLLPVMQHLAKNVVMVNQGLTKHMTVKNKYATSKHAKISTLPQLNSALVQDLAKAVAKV

As to `N[C@H]1CC[C@H](Nc2nc(NC3CCN(C(=O)c4c(Cl)cccc4Cl)CC3)c3ncn(C4CCCC4)c3n2)CC1` [compound 14, trans-1-{4-[2-(4-Amino-cyclohexylamino)-9-cyclopentyl-9H-purin-6-ylamino]-piperidin-1-yl}-1-(2,6-dichloro-phenyl)-methanone], the IC50 – broadly, the point on the concentration scale where inhibition reaches its midpoint – was 514 nM on cdk2/cyclin E; 2.98 µM in the assay on MDA-MB-435; 2.99 µM with PC-3; 164 nM on cdk1/cyclin B; 17 nM at cdk4/cyclin D1.

For `N[C@H]1CC[C@H](Nc2nc(NC3CCN(C(=O)c4ccc(Cl)c(Cl)c4)CC3)c3ncn(C4CCCC4)c3n2)CC1` [compound 15, trans-1-{4-[2-(4-Amino-cyclohexylamino)-9-cyclopentyl-9H-purin-6-ylamino]-piperidin-1-yl}-1-(3,4-dichloro-phenyl)-methanone], the IC50 against cdk2/cyclin E turned out to be 291 nM; with MDA-MB-435, 0.67 µM; in the assay with PC-3, 0.74 µM; against cdk1/cyclin B it was 61 nM; at cdk4/cyclin D1 it was 732 nM.

As for `COc1cc(C(=O)N2CCC(Nc3nc(N[C@H]4CC[C@H](N)CC4)nc4c3ncn4C3CCCC3)CC2)cc(OC)c1OC` [compound 16, trans-1-{4-[2-(4-Amino-cyclohexylamino)-9-cyclopentyl-9H-purin-6-ylamino]-piperidin-1-yl}-1-(3,4,5-trimethoxy-phenyl)-methanone], the IC50 against cdk2/cyclin E came to 83 nM; with MDA-MB-435, 8.52 µM; in the assay on PC-3, 7.91 µM; against cdk1/cyclin B, 43 nM; against cdk4/cyclin D1 it was 372 nM.

On to `COc1cc(OC)cc(C(=O)N2CCC(Nc3nc(N[C@H]4CC[C@H](N)CC4)nc4c3ncn4C3CCCC3)CC2)c1` [compound 17, trans-1-{4-[2-(4-Amino-cyclohexylamino)-9-cyclopentyl-9H-purin-6-ylamino]-piperidin-1-yl}-1-(3,5-dimethoxy-phenyl)-methanone], for which the IC50 at cdk2/cyclin E worked out at 189 nM; in the assay with MDA-MB-435, 2.22 µM; in the assay on PC-3 it was 1.82 µM; on cdk1/cyclin B, 89 nM; on cdk4/cyclin D1 it was 467 nM.

For the molecule `CCCCOc1ccc(C(=O)N2CCC(Nc3nc(N[C@H]4CC[C@H](N)CC4)nc4c3ncn4C3CCCC3)CC2)cc1` [compound 18, trans-1-{4-[2-(4-Amino-cyclohexylamino)-9-cyclopentyl-9H-purin-6-ylamino]-piperidin-1-yl}-1-(4-butoxy-phenyl)-methanone], the IC50 turned out to be 336 nM on cdk2/cyclin E; 2.76 µM with MDA-MB-435; 3.43 µM in the assay with PC-3; 506 nM against cdk1/cyclin B; 1490 nM at cdk4/cyclin D1.

Turning to `CCCCCCCOc1ccc(C(=O)N2CCC(Nc3nc(N[C@H]4CC[C@H](N)CC4)nc4c3ncn4C3CCCC3)CC2)cc1` [compound 19, trans-1-{4-[2-(4-Amino-cyclohexylamino)-9-cyclopentyl-9H-purin-6-ylamino]-piperidin-1-yl}-1-(4-heptoxy-phenyl)-methanone], the IC50 against cdk2/cyclin E amounted to 567 nM; in the assay on MDA-MB-435 it was 0.58 µM; in the assay with PC-3 it was 0.96 µM; against cdk1/cyclin B, 62 nM; at cdk4/cyclin D1 it was 883 nM.

Regarding `CC(C)(C)c1ccc(C(=O)N2CCC(Nc3nc(N[C@H]4CC[C@H](N)CC4)nc4c3ncn4C3CCCC3)CC2)cc1` [compound 20, trans-1-{4-[2-(4-Amino-cyclohexylamino)-9-cyclopentyl-9H-purin-6-ylamino]-piperidin-1-yl}-1-(4-tert-butyl-phenyl)-methanone], the IC50 against cdk2/cyclin E was determined as 352 nM; in the assay with MDA-MB-435, 2.25 µM; in the assay on PC-3, 1.96 µM; at cdk1/cyclin B, 161 nM; against cdk4/cyclin D1, 682 nM.

`CCCCCc1ccc(C(=O)N2CCC(Nc3nc(N[C@H]4CC[C@H](N)CC4)nc4c3ncn4C3CCCC3)CC2)cc1` [compound 22, trans-1-{4-[2-(4-Amino-cyclohexylamino)-9-cyclopentyl-9H-purin-6-ylamino]-piperidin-1-yl}-1-(4-pentyl-phenyl)-methanone]: the IC50 at cdk2/cyclin E turned out to be 571 nM; in the assay on MDA-MB-435, 1.61 µM; in the assay with PC-3, 1.86 µM; against cdk1/cyclin B, 182 nM; on cdk4/cyclin D1, 383 nM.

Regarding `CCCCCCc1ccc(C(=O)N2CCC(Nc3nc(N[C@H]4CC[C@H](N)CC4)nc4c3ncn4C3CCCC3)CC2)cc1` [compound 23, trans-1-{4-[2-(4-Amino-cyclohexylamino)-9-cyclopentyl-9H-purin-6-ylamino]-piperidin-1-yl}-1-(4-hexyl-phenyl)-methanone], the IC50 against cdk2/cyclin E is 596 nM; in the assay on MDA-MB-435, 1.08 µM; in the assay on PC-3, 2.27 µM; against cdk1/cyclin B, 300 nM; on cdk4/cyclin D1 it was 629 nM.

For `N#Cc1ccc(C(=O)N2CCC(Nc3nc(N[C@H]4CC[C@H](N)CC4)nc4c3ncn4C3CCCC3)CC2)cc1` [compound 25, trans-1-{4-[2-(4-Amino-cyclohexylamino)-9-cyclopentyl-9H-purin-6-ylamino]-piperidin-1-yl}-1-(4-cyano-phenyl)-methanone], the concentration for half-maximal inhibition (IC50) on cdk2/cyclin E turned out to be 79 nM; with MDA-MB-435, 3.76 µM; in the assay on PC-3, 2.72 µM; on cdk1/cyclin B it was 56 nM; against cdk4/cyclin D1, 629 nM.

In the case of `N[C@H]1CC[C@H](Nc2nc(NC3CCN(C(=O)c4cccc([N+](=O)[O-])c4)CC3)c3ncn(C4CCCC4)c3n2)CC1` [compound 26, trans-1-{4-[2-(4-Amino-cyclohexylamino)-9-cyclopentyl-9H-purin-6-ylamino]-piperidin-1-yl}-1-(3-nitro-phenyl)-methanone], the IC50 against cdk2/cyclin E was found to be 78 nM; in the assay with MDA-MB-435 it was 2.18 µM; with PC-3 it was 1.67 µM; at cdk1/cyclin B it was 31 nM; at cdk4/cyclin D1 it was 564 nM.

For the molecule `CCOC(=O)CC(=O)N1CCC(Nc2nc(N[C@H]3CC[C@H](N)CC3)nc3c2ncn3C2CCCC2)CC1` [compound 29, trans-3-{4-[2-(4-Amino-cyclohexylamino)-9-cyclopentyl-9H-purin-6-ylamino]-piperidin-1-yl}-3-oxo-propionic acid ethyl ester dihydrochloride], the IC50 was determined as 56 nM on cdk2/cyclin E; 3 µM with MDA-MB-435; 2.4 µM in the assay with PC-3; 27 nM against cdk1/cyclin B; 632 nM on cdk4/cyclin D1.

Take `COc1ccc(CC(=O)N2CCC(Nc3nc(N[C@H]4CC[C@H](N)CC4)nc4c3ncn4C3CCCC3)CC2)cc1OC` [compound 32, trans 1-{4-[2-(4-Amino-cyclohexylamino)-9-cyclopentyl-9H-purin-6-ylamino]-piperidin-1-yl}-2-(3,4-dimethoxy-phenyl)-ethanone dihydrochloride]: the IC50 worked out at 53 nM on cdk2/cyclin E; 5.46 µM in the assay on MDA-MB-435; 4.84 µM in the assay with PC-3; 24 nM at cdk1/cyclin B; 189 nM against cdk4/cyclin D1.

As to `C/C=C/C(=O)N1CCC(Nc2nc(N[C@H]3CC[C@H](N)CC3)nc3c2ncn3C2CCCC2)CC1` [compound 35, trans (E)-1-{4-[2-(4-Amino-cyclohexylamino)-9-cyclopentyl-9H-purin-6-ylamino]-piperidin-1-yl}-but-2-en-1-one dihydrochloride], the IC50 against cdk2/cyclin E stood at 55 nM; in the assay with MDA-MB-435, 1.38 µM; in the assay with PC-3, 0.98 µM; at cdk1/cyclin B it was 48 nM; against cdk4/cyclin D1 it was 766 nM.

Take `N[C@H]1CC[C@H](Nc2nc(NC3CCN(C(=O)CCC4CCCC4)CC3)c3ncn(C4CCCC4)c3n2)CC1` [compound 36, trans-1-{4-[2-(4-Amino-cyclohexylamino)-9-cyclopentyl-9H-purin-6-ylamino]-piperidin-1-yl}-3-cyclopentyl-propan-1-one dihydrochloride]: the IC50 amounted to 79 nM against cdk2/cyclin E; 0.39 µM with MDA-MB-435; 0.39 µM in the assay with PC-3; 45 nM against cdk1/cyclin B; 697 nM at cdk4/cyclin D1.

Take `COc1cccc(CC(=O)N2CCC(Nc3nc(N[C@H]4CC[C@H](N)CC4)nc4c3ncn4C3CCCC3)CC2)c1` [compound 38, trans-1-{4-[2-(4-Amino-cyclohexylamino)-9-cyclopentyl-9H-purin-6-ylamino]-piperidin-1-yl}-2-(3-methoxy-phenyl)-ethanone dihydrochloride]: the IC50 at cdk2/cyclin E turned out to be 66 nM; in the assay on MDA-MB-435 it was 1.28 µM; in the assay on PC-3 it was 1.83 µM; at cdk1/cyclin B, 27 nM; against cdk4/cyclin D1 it was 703 nM.

As to `N[C@H]1CC[C@H](Nc2nc(NC3CCN(C(=O)C4CCCC4)CC3)c3ncn(C4CCCC4)c3n2)CC1` [compound 39, trans-1-{4-[2-(4-Amino-cyclohexylamino)-9-cyclopentyl-9H-purin-6-ylamino]-piperidin-1-yl}-1-cyclopentyl-methanone], the IC50 on cdk2/cyclin E came to 51 nM; in the assay with MDA-MB-435, 0.51 µM; in the assay on PC-3, 0.61 µM; against cdk1/cyclin B it was 66 nM; on cdk4/cyclin D1, 664 nM.

The record behind these values is patent EP1377579B1 (Aventis Pharmaceuticals Inc., priority 2000, dated 2002).
